The text below walks through data of PMC6801448, “The Antioxidant and Antiproliferative Activities of 1,2,3-Triazolyl-L-Ascorbic Acid Derivatives” (International Journal of Molecular Sciences, 2019).

Entries after “also recorded” stand apart in the source; their conditions may differ. Like-named read-outs stand apart in the source and are kept apart here.

In data set [1] the test system is A549 (lung adenocarcinoma). Put plainly: MTT proliferation assay, A549. Format: cell-based. Particulars: Homo sapiens, 72 h. In short, it runs like this: (§1)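 5000 cells/well, DMEM + 10% FBS; compound added at 24 h, 0.01–100 μM, 72 h, 37 °C/5% CO2. MTT 3 h, DMSO, OD 570 nm → % growth (NIH protocol) → IC50 by regression.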
For data set [2], the system named is SW620 (colorectal adenocarcinoma, metastatic). The experiment in a line: MTT proliferation assay, SW620. Type of data set: cell-based. Particulars: Homo sapiens, SW-620, 72 h. An outline of the steps: as §1
On the technique in general: Tetrazolium assays rely on reduction of a dye to a coloured formazan, in cell work by metabolically active cells.

The subject of data set [3] is HeLa (cervical carcinoma). The experiment in a line: MTT proliferation assay, HeLa. Type of data set: cell-based. Particulars: Homo sapiens, 72 h. In short, it runs like this: as §1
Data set [4] concerns CFPAC-1 (ductal pancreatic adenocarcinoma). Put plainly: MTT proliferation assay, CFPAC-1. Type of data set: cell-based. To be noted: Homo sapiens, 72 h. An outline of the steps: as §1
Data set [5] has as its system HepG2 (hepatocellular carcinoma). Put plainly: MTT proliferation assay, HepG2. Type of data set: cell-based. To be noted: Homo sapiens, 72 h. In short, it runs like this: as §1
In data set [6] the test system is HCT-116 (colorectal carcinoma). The experiment in a line: MTT proliferation assay, HCT-116. Format: cell-based. To be noted: Homo sapiens, 72 h. In short, it runs like this:
as §1

Data set [7] is described as follows: DPPH radical scavenging assay. Format: biochemical. In short, it runs like this: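 Compounds at 0.06, 0.12, 0.18, 0.23, 0.25 and 0.28 mM reacted with the stable DPPH• radical. Absorbance at 517 nm was read 5 and 10 min after mixing to follow DPPH reduction, with L-ascorbic acid as the reference.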
Data set [8] relates to MCF-7 (breast adenocarcinoma). The experiment in a line: MTT proliferation assay, MCF-7. Type of data set: cell-based, Human. To be noted: for IC50: Homo sapiens, MCF7, 72 h, MTT. In short, it runs like this: as §1
For another data set, the system named is HFF-1 cells. The experiment in a line: Seahorse XF Cell Mito Stress Test, HFF-1. Format: cell-based, Human. Particulars: HFF-1, 24 h. On the procedure:
The Seahorse XF Cell Mito Stress Test was used for measurements of mitochondrial respiration by direct assessment of the oxygen consumption rate (OCR), of treated and untreated cells on the Seahorse XFe24 Analyzer, (Agilent, Santa Clara, CA, USA). Key parameters of the mitochondrial function were measured by direct assessment of the OCR, by use of the Mito Stress Test (Agilent, Agilent, Santa Clara, CA, USA). The Mito Stress Test uses modulators of respiration that target components of the electron transport chain in the mitochondria. The compounds added to the reaction were: oligomycin, mitochondrial oxidative phosphorylation uncoupler carbonyl cyanide-4-(trifluoromethoxy)phenylhydrazone (FCCP), and the mix of rotenone and antymicin A. These were directly injected to the cell growth medium containing cells treated with selected L-ASA derivatives to determine the production of ATP, respiration at maximal level, and the non-mitochondrial respiration. Measured parameters were used for calculation of the proton leakage, spare respiratory capacity, and basal respiration. The assay was performed according to the manufacturer’s instructions (SeaHorse—Mito Stress Test: Agilent, Santa Clara, CA, USA). Briefly, selected compound 4e was tested due to its selective antiproliferative effect on MCF-7 cells. MCF-7 cells were treated for 24 h with compound 4e at 3 different concentrations (at 12.72 µM, 25.44 µM and 50.88 µM) while the cells HFF-1 were treated for 24 h with compound 4e at concentrations 50 µM, 100 µM, and 200 µM. […] The experiment was performed with biological duplicates.

Data set [9] relates to HFF-1 (foreskin fibroblasts). Put plainly: MTT proliferation assay, HFF-1. Type of data set: cell-based. To be noted: Homo sapiens, 72 h, normal foreskin fibroblasts. An outline of the steps:
as §1

Setting [10] is: 5 min treatment, read-out: IC50 of DPPH• inhibition, Treatm. 5 min.
The mark [11] stands for this setting: 10 min treatment, read-out: IC50 of DPPH• inhibition, Treatm. 10 min.

For orientation: IC50 means the concentration that inhibits the measured activity by half.

Regarding `O=C1O[C@H]([C@@H](O)Cn2cc(-c3ccc(Br)cc3)nn2)C(O)=C1O` [Compound 4e, 6-[4-(4-bromophenyl)-1,2,3-triazol-1-yl]-6-deoxy-L-ascorbic acid], the IC50 in data set [1] was 25.4 µM; in [2], > 100 µM; in data set [3], > 100 µM; in [4], > 100 µM; in data set [5] it was > 100 µM; in data set [6], > 100 µM. For the same molecule, the IC50 in data set [7] (setting [10]) was 200 ± 10 µM; in data set [7] (setting [11]), 190 ± 10 µM; in data set [8] it was 6.72 µM; in [9], > 100 µM. For the same molecule, the “selectivity index, SI” value in [8] (WI-38 versus MCF-7) worked out at 11. Also, the “basal cell respiration and ATP production” value in the data set on HFF-1 cells was “did not affect the basal cell respiration or ATP production; also recorded: did not affect the basal cell respiration and ATP production”. Further, the “cellular metabolism and mitochondrial activity” value in the data set on HFF-1 cells (100 µM) is “slightly positive effect”.
Consider `O=C1O[C@H]([C@@H](O)CO)C(O)=C1O` [L-ASA, L-ascorbic acid], for which the IC50 in [1], in data set [2], in data set [3], in data set [4], in [5] and in data set [6] was > 100 µM each time. Besides, the IC50 in data set [7] (setting [10]) is 180 ± 60 µM; in data set [7] (setting [11]), 170 ± 50 µM; in data set [8] it was > 100 µM; in [9], > 100 µM. Besides, in [7] (calculated from IC50 values of Table 1), the “pIC50 (negative logarithm of DPPH• IC50)” value is given as 3.75. In addition, in the data set with HFF-1 cells (higher concentrations), the “decrease of basal cell respiration and ATP production, switch towards non-mitochondrial respiration” value is recorded as “this effect was not observed”.
